# Measurements taken from ChEMBL document CHEMBL4138123, “Design, synthesis and biological evaluation of novel pyrazolochalcones as potential modulators of PI3K/Akt/mTOR pathway and inducers of apoptosis in breast cancer cells” (Eur J Med Chem, 2017).
# Legend:
# Type in all cases: functional
# [1] = system: NCI-H460; experiment: Cytotoxicity against human NCI-H460 cells assessed as growth inhibition after 48 hrs by sulforhodamine B assay; conditions: NCI-H460, 48 h
# [2] = system: SF-268; experiment: Cytotoxicity against human SF268 cells assessed as growth inhibition after 48 hrs by sulforhodamine B assay; conditions: SF-268, 48 h; for CC50: read-out: LC50 (the source's name)
# [3] = system: SK-MEL-2; experiment: Cytotoxicity against human SK-MEL-2 cells assessed as growth inhibition after 48 hrs by sulforhodamine B assay; conditions: SK-MEL-2, 48 h
# [4] = system: ACHN; experiment: Cytotoxicity against human ACHN cells assessed as growth inhibition after 48 hrs by sulforhodamine B assay
# [5] = system: OVCAR-5; experiment: Cytotoxicity against human OVCAR5 cells assessed as cell growth at 0.01 uM after 48 hrs by sulforhodamine B assay relative to control; conditions: OVCAR-5, 48 h, read-out: Activity
# [6] = system: SK-MEL-28; experiment: Cytotoxicity against human SK-MEL-28 cells assessed as cell growth at 0.01 uM after 48 hrs by sulforhodamine B assay relative to control; conditions: SK-MEL-28, 48 h, read-out: Activity
# [7] = system: NCI-H460; experiment: Cytotoxicity against human NCI-H460 cells assessed as cell growth at 0.01 uM after 48 hrs by sulforhodamine B assay relative to control; conditions: NCI-H460, 48 h, read-out: Activity
# [8] = system: K562; experiment: Cytotoxicity against human K562 cells assessed as cell growth at 0.01 uM after 48 hrs by sulforhodamine B assay relative to control; conditions: K562, 48 h, read-out: Activity
# [9] = system: RXF 393; experiment: Cytotoxicity against human RXF393 cells assessed as cell growth at 0.01 uM after 48 hrs by sulforhodamine B assay relative to control; conditions: RXF 393, 48 h, read-out: Activity
# [10] = system: MCF7; experiment: Cytotoxicity against human MCF7 cells assessed as cell growth at 0.01 uM after 48 hrs by sulforhodamine B assay relative to control; conditions: MCF7, 48 h, read-out: Activity
# [11] = system: MDA-MB-231; experiment: Cytotoxicity against human MDA-MB-231 cells assessed as cell growth at 0.01 uM after 48 hrs by sulforhodamine B assay relative to control; conditions: MDA-MB-231, 48 h, read-out: Activity
# [12] = system: Hs-578T; experiment: Cytotoxicity against human Hs 578T cells assessed as cell growth at 0.01 uM after 48 hrs by sulforhodamine B assay relative to control; conditions: read-out: Activity
# [13] = system: K562; experiment: Cytotoxicity against human K562 cells assessed as cell growth at 0.1 uM after 48 hrs by sulforhodamine B assay relative to control; conditions: K562, 48 h, read-out: Activity
# [14] = system: A549; experiment: Cytotoxicity against human A549/ATCC cells assessed as cell growth at 0.1 uM after 48 hrs by sulforhodamine B assay relative to control; conditions: A549, 48 h, read-out: Activity
# [15] = system: NCI-H322M; experiment: Cytotoxicity against human NCI-H322M cells assessed as cell growth at 0.1 uM after 48 hrs by sulforhodamine B assay relative to control; conditions: read-out: Activity
# [16] = system: SK-OV-3; experiment: Cytotoxicity against human SKOV3 cells assessed as cell growth at 0.1 uM after 48 hrs by sulforhodamine B assay relative to control; conditions: SK-OV-3, 48 h, read-out: Activity
# [17] = system: MOLT-4; experiment: Cytotoxicity against human MOLT4 cells assessed as cell growth at 1 uM after 48 hrs by sulforhodamine B assay relative to control; conditions: MOLT-4, 48 h, read-out: Activity
# [18] = system: RPMI-8226; experiment: Cytotoxicity against human RPMI8226 cells assessed as cell growth at 1 uM after 48 hrs by sulforhodamine B assay relative to control; conditions: RPMI-8226, 48 h, read-out: Activity
# [19] = system: NCI-H522; experiment: Cytotoxicity against human NCI-H522 cells assessed as cell growth at 1 uM after 48 hrs by sulforhodamine B assay relative to control; conditions: NCI-H522, 48 h, read-out: Activity
# [20] = system: HCT-15; experiment: Cytotoxicity against human HCT15 cells assessed as cell growth at 1 uM after 48 hrs by sulforhodamine B assay relative to control; conditions: HCT-15, 48 h, read-out: Activity
# [21] = system: M14; experiment: Cytotoxicity against human M14 cells assessed as cell growth at 1 uM after 48 hrs by sulforhodamine B assay relative to control; conditions: M14, 48 h, read-out: Activity
# [22] = system: T47D; experiment: Cytotoxicity against human T47D cells assessed as cell growth at 1 uM after 48 hrs by sulforhodamine B assay relative to control; conditions: read-out: Activity
# [23] = system: SR; experiment: Cytotoxicity against human SR cells assessed as cell growth at 10 uM after 48 hrs by sulforhodamine B assay relative to control; conditions: read-out: Activity
# [24] = system: HOP-62; experiment: Cytotoxicity against human HOP62 cells assessed as cell growth at 10 uM after 48 hrs by sulforhodamine B assay relative to control; conditions: HOP-62, 48 h, read-out: Activity
# [25] = system: NCI-H23; experiment: Cytotoxicity against human NCI-H23 cells assessed as cell growth at 10 uM after 48 hrs by sulforhodamine B assay relative to control; conditions: NCI-H23, 48 h, read-out: Activity
# [26] = system: HCT-116; experiment: Cytotoxicity against human HCT116 cells assessed as cell growth at 10 uM after 48 hrs by sulforhodamine B assay relative to control; conditions: HCT-116, 48 h, read-out: Activity
# [27] = system: KM12; experiment: Cytotoxicity against human KM12 cells assessed as cell growth at 10 uM after 48 hrs by sulforhodamine B assay relative to control; conditions: KM12, 48 h, read-out: Activity
# [28] = system: SNB-19; experiment: Cytotoxicity against human SNB19 cells assessed as cell growth at 10 uM after 48 hrs by sulforhodamine B assay relative to control; conditions: SNB-19, 48 h, read-out: Activity
# [29] = system: OVCAR-5; experiment: Cytotoxicity against human OVCAR5 cells assessed as cell growth at 10 uM after 48 hrs by sulforhodamine B assay relative to control; conditions: OVCAR-5, 48 h, read-out: Activity
# [30] = system: SR; experiment: Cytotoxicity against human SR cells assessed as cell growth at 100 uM after 48 hrs by sulforhodamine B assay relative to control; conditions: read-out: Activity
# [31] = system: NCI-H322M; experiment: Cytotoxicity against human NCI-H322M cells assessed as cell growth at 100 uM after 48 hrs by sulforhodamine B assay relative to control; conditions: read-out: Activity
# [32] = system: SW-620; experiment: Cytotoxicity against human SW620 cells assessed as cell growth at 100 uM after 48 hrs by sulforhodamine B assay relative to control; conditions: SW-620, 48 h, read-out: Activity
# [33] = system: NCI/ADR-RES; experiment: Cytotoxicity against human NCI/ADR-RES cells assessed as cell growth at 100 uM after 48 hrs by sulforhodamine B assay relative to control; conditions: read-out: Activity
# [34] = system: MDA-MB-231; experiment: Cytotoxicity against human MDA-MB-231 cells assessed as cell growth at 100 uM after 48 hrs by sulforhodamine B assay relative to control; conditions: MDA-MB-231, 48 h, read-out: Activity
# [35] = system: SN12C; experiment: Cytotoxicity against human SN12C cells assessed as growth inhibition after 48 hrs by sulforhodamine B assay
compound,measurement,setting,value
COc1ccc(C(=O)/C=C/c2cc(-c3cc(OC)c(OC)c(OC)c3)n[nH]2)cc1,LC50,[1],8.18 µM
same,TGI,[1],3.75 µM
same,TGI,[2],5.12 µM
same,CC50,[2],> 100 µM
same,LC50 (concentration killing 50% of cells),[3],99.2 µM
same,TGI,[3],19.6 µM
same,LC50,[4],6.71 µM
same,TGI,[4],3.63 µM
same,growth at 0.01 µM,[5],99%
same,growth at 0.01 µM,[6],105%
same,growth at 0.01 µM,[7],103%
same,growth at 0.01 µM,[8],97%
same,growth at 0.01 µM,[9],93%
same,growth at 0.01 µM,[10],101%
same,growth at 0.01 µM,[11],104%
same,growth at 0.01 µM,[12],99%
same,growth at 0.1 µM,[13],102%
same,growth at 0.1 µM,[14],101%
same,growth at 0.1 µM,[15],96%
same,growth at 0.1 µM,[16],99%
same,growth at 1 µM,[17],102%
same,growth at 1 µM,[18],27%
same,growth at 1 µM,[19],75%
same,growth at 1 µM,[20],72%
same,growth at 1 µM,[21],99%
same,growth at 1 µM,[22],78%
same,growth at 10 µM,[23],3%
same,growth at 10 µM,[24],-64%
same,growth at 10 µM,[25],2%
same,growth at 10 µM,[26],-22%
same,growth at 10 µM,[27],-88%
same,growth at 10 µM,[28],-85%
same,growth at 10 µM,[29],-70%
same,growth at 100 µM,[30],-5%
same,growth at 100 µM,[31],-31%
same,growth at 100 µM,[32],-39%
same,growth at 100 µM,[33],-6%
same,growth at 100 µM,[34],19%
COc1cc2c(cc1OC)C(=O)/C(=C/c1cc(-c3ccc4c(c3)OCO4)n[nH]1)C2,GI50,[1],1.68 µM
same,LC50,[1],8.57 µM
same,TGI,[1],3.79 µM
same,GI50,[2],1.63 µM
same,TGI,[2],3.37 µM
same,CC50,[2],6.99 µM
same,GI50,[4],1.73 µM
same,LC50,[4],6.04 µM
same,TGI,[4],3.23 µM
same,GI50,[35],1.59 µM
same,LC50,[35],5.62 µM
same,TGI,[35],2.99 µM
same,growth at 0.01 µM,[5],102%
same,growth at 0.01 µM,[6],104%
same,growth at 0.01 µM,[7],99%
same,growth at 0.01 µM,[8],97%
same,growth at 0.01 µM,[9],97%
same,growth at 0.01 µM,[10],96%
same,growth at 0.01 µM,[11],106%
same,growth at 0.01 µM,[12],95%
same,growth at 0.1 µM,[13],94%
same,growth at 0.1 µM,[14],99%
same,growth at 0.1 µM,[15],92%
same,growth at 0.1 µM,[16],105%
same,growth at 1 µM,[17],97%
same,growth at 1 µM,[18],-24%
same,growth at 1 µM,[19],-6%
same,growth at 1 µM,[20],56%
same,growth at 1 µM,[21],98%
same,growth at 1 µM,[22],69%
same,growth at 10 µM,[23],-24%
same,growth at 10 µM,[24],-92%
same,growth at 10 µM,[25],-63%
same,growth at 10 µM,[26],-75%
same,growth at 10 µM,[27],-87%
same,growth at 10 µM,[28],-95%
same,growth at 10 µM,[29],-92%
same,growth at 100 µM,[30],-22%
same,growth at 100 µM,[31],-91%
same,growth at 100 µM,[32],-71%
same,growth at 100 µM,[33],-40%
same,growth at 100 µM,[34],-96%
COc1ccc(-c2cc(/C=C/C(=O)c3ccc(OC)c(OC)c3)[nH]n2)cc1,GI50,[1],1.64 µM
same,LC50,[1],22.8 µM
same,TGI,[1],4.34 µM
same,GI50,[2],1.94 µM
same,TGI,[2],4.82 µM
same,CC50,[2],27.3 µM
same,GI50,[4],1.68 µM
same,LC50,[4],8.71 µM
same,TGI,[4],3.83 µM
same,GI50,[35],1.64 µM
same,LC50,[35],8.73 µM
same,TGI,[35],3.78 µM
same,growth at 0.01 µM,[5],93%
same,growth at 0.01 µM,[6],101%
same,growth at 0.01 µM,[7],100%
same,growth at 0.01 µM,[8],109%
same,growth at 0.01 µM,[9],82%
same,growth at 0.01 µM,[10],91%
same,growth at 0.01 µM,[11],98%
same,growth at 0.01 µM,[12],96%
same,growth at 0.1 µM,[13],108%
same,growth at 0.1 µM,[14],90%
same,growth at 0.1 µM,[15],94%
same,growth at 0.1 µM,[16],109%
same,growth at 1 µM,[17],95%
same,growth at 1 µM,[18],8%
same,growth at 1 µM,[19],11%
same,growth at 1 µM,[20],65%
same,growth at 1 µM,[21],97%
same,growth at 1 µM,[22],70%
same,growth at 10 µM,[23],-29%
same,growth at 10 µM,[24],-25%
same,growth at 10 µM,[25],-24%
same,growth at 10 µM,[26],-78%
same,growth at 10 µM,[27],-72%
same,growth at 10 µM,[28],-31%
same,growth at 10 µM,[29],-49%
same,growth at 100 µM,[30],-41%
same,growth at 100 µM,[31],-98%
same,growth at 100 µM,[32],-55%
same,growth at 100 µM,[33],-22%
same,growth at 100 µM,[34],-86%
